Measured values reported in US20200239398A1, “METHYLENE-CYCLOALKYLACETATE DERIVATIVES AND THEIR USE IN TREATMENT OF NEUROTROPIC CONDITIONS” (Yissum Research Development Company of The Hebrew …, priority 2018, published 2020).

Key:
[1] = system: PC12 cells; experiment: PC12 cell neurotropic assay (neurite outgrowth); assay type: cell-based, rat; details: 10 μM; for Neurotropic effect (mean ± SE) Seven Days Df / Neurotropic effect (mean ± SE) Two Days Df: PC12 cells, Df = fractal dimension of neurite outgrowth; for Neurotropic effect (mean ± SE) Seven Days Df: seven days of treatment; for Neurotropic effect (mean ± SE) Two Days Df: two days of treatment; for Neurotropic effect Seven Days NGF (%) / Neurotropic effect Two Days NGF (%): relative to NGF 50 ng/ml; for inducing fast neurite outgrowth (in words): after two days of treatment
Experimental: PC12 cells were grown in T-200 flasks in high glucose (4.5 gr/L) DMEM medium supplemented with 7% FCS, 7% horse serum and 1% penicillin and streptomycin. Cells were incubated at 37° C. in a humidified incubator containing 6% CO2. All experiments were carried out in a clean room, according to ISO7 requirements (10,000 particles/m^3).
Tissue culture Falcon plates were coated with 200 μg/ml collagen type 1 and placed under UV light for 30 minutes for sterilization. Thereafter, one ml of PC12 cell suspension (5000 cells/well) was applied in 12 or 24 well plate, respectively. The cultures were grown in the incubator two days before exposure to investigated compound.
This experimental procedure contained two controls. The first consisted of untreated cells (negative control), representing the random effect: “noise signal”—the ability of cells to spontaneously grow neurite outgrowth which in seven days are of a length less than two-fold cell diameter. Also, negative controls consisted of cultures treated with 1% DMSO, solvent used to solubilize all compounds. The positive control consisted of cells treated with 50 ng/ml NGF, indicating maximal neurite outgrowth that can be achieved in this model. The experimental group consisted of PC12 cells treated with synthetic compounds. In each experiment, after two and seven days, six cultures were evaluated for neurotropic effect. These consecutive observations allow measurement of the progress of neurite outgrowth elongation and the percentage of cells with neurites.^31
In order to assess neurotropic effect, the neurite outgrowth length in each culture was quantified. For this purpose, each culture was placed under an inverted microscope and photographed by the attached camera. Each well was photographed at three to five representative areas. After acquiring the photos, they were analyzed by ImageJ, NIH software. The neurite outgrowth was estimated by fractal dimension (Df), a statistical parameter that describes the fractional space (area and length) filled by neurite outgrowth. Df ranged from 0 to 1.20. This method estimates the amount of picsel covered by neurites/cells compared to empty space per square field, and therefore plotting log (number of square boxes) vs. log (size in pixels) relationship generates a linear curve with Df representing the slope of the curve. Every photograph that was taken, was opened in a Photoshop software and a new layer was generated on it. Using a 5-pixel wide digital pencil tool, all the outgrowths were marked and the layer with the markers (outgrowth network) was saved in a 0-255 gray scale as described in FIG. 2. Then, the saved layer was opened by ImageJ NIH software. The software “skeletonized” the layer, measured the length and complexity of every outgrowth in a fractal box count and calculated the fractional dimension parameter (Df).^32
Each experiment was performed in duplicates and repeated three to four times (n=6-8). By using SPSS software, one way ANOVA was performed for the fractional dimension of each compound, in order to evaluate the neurotropic effect. In case of significance, Bonferroni post-hoc analysis was performed. The results were considered significant when p<0.05.

[2] = system: PC12 cells; experiment: Cytotoxicity (cell morphology, LDH release); assay type: cell-based; details: 10 μM
[3] = biological target: T1, N-methyl-D-aspartate (NMDA) Glutamate Receptor 1A/2B (NMDAR (1A/2B)) (Homo sapiens, UniProt Q05586+Q13224); experiment: SAFETYscan NMDAR (1A/2B) Ion channel; assay type: cell-based; details: Blocker mode; reference compound; read-out: RC50 (the source's name)
T1 construct: DiscoverX (SAFETYscan contract panel)

[4] = biological target: T2, Nicotinic acetylcholine Receptor-alpha-4 beta-2 (nAChR (a4/b2)) (Homo sapiens, UniProt P17787+P43681); experiment: cell-based; assay type: cell-based; details: Blocker mode; reference compound; read-out: RC50 (the source's name)
T2 construct: DiscoverX (SAFETYscan contract panel)

[5] = biological target: Gamma-aminobutyric acid Receptor A (GABAA); assay type: cell-based; details: Blocker mode; reference compound; read-out: RC50 (the source's name)
[6] = system: dorsal root ganglion (DRG) sensory neurons; experiment: Neurite outgrowth in dorsal root ganglion (DRG) explants; assay type: cell-based, mice
Experimental: To perform these experiments, about 10 dorsal root ganglia (DRGs) were excised under sterile conditions and transferred to 0.25% Type IV collagenase (Sigma-Aldrich-Merck) in Dulbecco's Modified Eagle Medium (DMEM) at 37° C. for 45 min, followed by a 20-min incubation with 0.025% trypsin in DMEM, to digest the associated connective tissue surrounding the neurons. After plating the ganglia onto collagen (50 μg/ml)/laminin mixture (5 μg/ml)-coated tissue culture wells for 24 h, DRG neurons were cultured for additional 1-7 days in fresh Neurobasal A/B27 containing either 50 ng/ml NGF (positive control), blank medium (DMSO 1%) control and HU-MCA-13. The cultures were photographed; thereafter the ganglia were immune-stained for neuronal tubulin and again photographed using a fluorescent microscope. Image analysis was performed by a researcher blinded to the experimental conditions. Neurite outgrowth distance measured in micrometers, was quantified as for PC12 cultures.

[7] = system: PC12 cells; experiment: Additive neurotropic effect between HU-MCA-13 and NGF, PC12 neurite outgrowth; assay type: cell-based, rat
Experimental: PC12 cells were cultured in T-200 flasks in high glucose (4.5 gr/L) DMEM medium supplemented with 7% FCS, 7% horse serum and 1% penicillin and streptomycin. Cells will be maintained at 37° C. in a humidified incubator containing 6% CO2. All experiments were carried out in a GLP clean room, according to ISO 7 requirements (10,000 particles/m^3). For neurotropic experiments, tissue culture Falcon plates were coated with 200 μg/ml collagen type 1 and placed under UV light for 30 minutes for sterilization. Thereafter, one ml of PC12 cell suspension (5000 cells/well) was applied in 12 or 24 well plate, respectively. The cultures were maintained in the incubator two days before exposure to investigated compound. Each neurotropic experiment contained two controls. The first consisted of untreated cells (negative control), representing the random effect: “noise signal”—the ability of cells to spontaneously grow neurite outgrowth which in seven days are of a length less than two-fold cell diameter. Also, negative controls consisted of cultures treated with 1% DMSO, solvent used to solubilize HU-MCA-13. The positive controls represented neuronal cultures treated with 50 ng/ml NGF, indicating maximal neurite outgrowth that can be achieved in this model. The experimental group consisted of PC12 cells treated with 10 μM HU-MCA-13. In each experiment, after two and seven days, six cultures will be evaluated for neurotropic effect. These consecutive observations allow measurement of the progress of neurite outgrowth elongation and the percentage of cells with neurites (Katzir et al. A quantitative bioassay for nerve growth factor, using PC12 clones expressing different levels of trkA receptors. J Mol Neurosci. 2002; 18(3):251-64). In order to assess neurotropic effect, the neurite outgrowth length in each culture was quantified. For this purpose, each culture was placed under an inverted microscope and photographed by the attached camera. Each well was photographed at three to five representative areas. After acquiring the photos, they were analyzed by ImageJ, NIH software. The neurite outgrowth was estimated by fractal dimension (Df), a statistical parameter that describes the fractional space (area and length) filled by neurite outgrowth. Df ranged from 0 to 1.20. This method estimated the amount of picsels covered by neurites/cells compared to empty space per square field, and therefore plotting log(number of square boxes) vs. log(size in pixels) relationship generated a linear curve with Df representing the slope of the curve. Every photograph that was taken, was opened in a Photoshop software and a new layer was generated on it. Using a 5-pixel wide digital pencil tool, all the outgrowths were marked and the layer with the markers (outgrowth network) were saved in a 0-255 gray scale. Thereafter, the saved layer was opened by ImageJ NIH software.
Using an established PC12 neurotropic in vitro assay, the regenerative enhancing effect of HU-MCA-13 when applied concomitantly, together with NGF, a known neurotrophin was investigated. […] NGF alone, as positive control, at the conventional dose of 50 ng/ml enhanced neurite outgrowth to a Df value of 0.54 at 2 days and 0.4 at 7 days of treatment (FIG. 5). To verify a possible additive effect, the cultures with a mixture of low dose NGF (1 ng/ml generating 10% neurite outgrowth=Df of 0.05) and 1 μM HU-MCA-13 generating about 10-15% neurite outgrowth=Df of 0.04) were tested and found after 2 days a Df of 0.85 and after 7 days a Df of 0.38. NGF is released by hematopoietic cells during polyneuropathy inflammatory process, this finding further strength the possibility of a potential enhancement regenerative effect of this drug upon in vivo therapy.

[8] = NGF 50 ng/ml, DRG explants, 5 days

T1 sequence (Q13224 27-1484, other chains not shown): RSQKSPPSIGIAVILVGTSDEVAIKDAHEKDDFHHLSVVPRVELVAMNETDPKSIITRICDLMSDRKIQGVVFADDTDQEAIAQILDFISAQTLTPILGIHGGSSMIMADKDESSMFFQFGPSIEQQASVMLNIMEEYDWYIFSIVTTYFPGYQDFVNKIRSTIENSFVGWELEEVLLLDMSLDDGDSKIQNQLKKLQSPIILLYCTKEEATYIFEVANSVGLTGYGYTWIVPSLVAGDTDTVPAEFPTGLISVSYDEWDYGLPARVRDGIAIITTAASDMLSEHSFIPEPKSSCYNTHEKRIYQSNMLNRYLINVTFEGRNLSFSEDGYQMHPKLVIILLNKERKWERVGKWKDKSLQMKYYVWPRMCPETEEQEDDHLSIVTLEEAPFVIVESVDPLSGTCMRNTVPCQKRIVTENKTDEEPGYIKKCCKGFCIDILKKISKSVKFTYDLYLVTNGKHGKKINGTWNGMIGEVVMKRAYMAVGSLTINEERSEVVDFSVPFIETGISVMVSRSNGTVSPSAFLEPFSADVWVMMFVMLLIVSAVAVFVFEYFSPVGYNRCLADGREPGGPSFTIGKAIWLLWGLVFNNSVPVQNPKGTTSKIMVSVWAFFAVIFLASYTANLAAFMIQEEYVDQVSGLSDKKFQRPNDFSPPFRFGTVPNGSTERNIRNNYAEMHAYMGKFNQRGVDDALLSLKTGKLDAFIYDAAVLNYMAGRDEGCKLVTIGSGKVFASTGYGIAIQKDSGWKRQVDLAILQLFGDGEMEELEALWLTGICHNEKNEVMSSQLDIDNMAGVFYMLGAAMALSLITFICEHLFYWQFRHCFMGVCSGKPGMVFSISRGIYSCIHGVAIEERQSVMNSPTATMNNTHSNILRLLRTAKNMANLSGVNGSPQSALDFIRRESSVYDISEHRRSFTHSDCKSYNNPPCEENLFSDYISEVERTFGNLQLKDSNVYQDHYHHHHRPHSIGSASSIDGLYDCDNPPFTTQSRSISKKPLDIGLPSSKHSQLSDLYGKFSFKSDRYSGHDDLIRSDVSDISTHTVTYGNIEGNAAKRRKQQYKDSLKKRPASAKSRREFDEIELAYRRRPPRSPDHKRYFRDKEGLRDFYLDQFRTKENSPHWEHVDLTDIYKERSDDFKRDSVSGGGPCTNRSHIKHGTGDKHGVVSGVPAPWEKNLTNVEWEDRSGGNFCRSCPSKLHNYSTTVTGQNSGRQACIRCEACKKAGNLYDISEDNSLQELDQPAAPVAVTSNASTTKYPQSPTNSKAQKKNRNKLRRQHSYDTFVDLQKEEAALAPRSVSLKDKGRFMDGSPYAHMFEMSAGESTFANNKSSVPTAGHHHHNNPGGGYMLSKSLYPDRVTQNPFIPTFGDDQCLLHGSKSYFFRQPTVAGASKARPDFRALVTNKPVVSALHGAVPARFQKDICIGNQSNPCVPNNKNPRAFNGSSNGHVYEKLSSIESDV
T2 sequence (P43681 29-627 limits assumed): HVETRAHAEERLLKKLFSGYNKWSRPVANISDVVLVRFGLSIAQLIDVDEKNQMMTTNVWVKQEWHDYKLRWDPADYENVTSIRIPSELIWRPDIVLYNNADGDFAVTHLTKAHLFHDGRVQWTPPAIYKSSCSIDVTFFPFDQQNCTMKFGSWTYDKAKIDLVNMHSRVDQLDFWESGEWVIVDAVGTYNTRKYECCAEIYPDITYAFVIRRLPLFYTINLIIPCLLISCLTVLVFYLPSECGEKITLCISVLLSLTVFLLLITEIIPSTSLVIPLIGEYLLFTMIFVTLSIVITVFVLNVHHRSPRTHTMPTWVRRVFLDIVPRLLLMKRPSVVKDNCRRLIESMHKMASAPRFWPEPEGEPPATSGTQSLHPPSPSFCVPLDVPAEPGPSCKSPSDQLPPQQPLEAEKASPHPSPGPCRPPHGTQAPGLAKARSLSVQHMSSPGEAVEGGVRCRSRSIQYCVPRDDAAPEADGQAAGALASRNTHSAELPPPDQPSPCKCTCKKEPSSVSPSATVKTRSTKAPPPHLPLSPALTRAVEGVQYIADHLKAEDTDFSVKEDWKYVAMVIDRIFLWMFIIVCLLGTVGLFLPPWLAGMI
T2 sequence (P17787 26-502): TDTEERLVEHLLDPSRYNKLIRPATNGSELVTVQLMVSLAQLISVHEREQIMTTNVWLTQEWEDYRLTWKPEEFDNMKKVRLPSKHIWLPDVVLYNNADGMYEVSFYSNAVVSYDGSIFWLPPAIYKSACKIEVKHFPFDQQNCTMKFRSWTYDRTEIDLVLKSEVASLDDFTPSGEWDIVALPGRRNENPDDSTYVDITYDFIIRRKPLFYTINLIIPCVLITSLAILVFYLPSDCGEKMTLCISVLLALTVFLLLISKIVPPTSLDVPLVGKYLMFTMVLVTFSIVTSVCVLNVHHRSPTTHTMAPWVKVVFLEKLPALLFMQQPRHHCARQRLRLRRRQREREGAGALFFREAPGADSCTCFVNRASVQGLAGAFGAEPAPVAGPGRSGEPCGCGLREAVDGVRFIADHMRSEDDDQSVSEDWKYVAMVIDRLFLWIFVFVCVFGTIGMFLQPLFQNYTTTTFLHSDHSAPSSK

C=C(C)CC1CCCC(CC(=O)OC)C1=C (centres unmarked) [Compound 5, Methyl 2-(3-(2-methylallyl)-2-methylenecyclohexyl)acetate] was tested, and the “loss of activity from day two to seven” value [1] was 50%, the “Neurotropic effect (mean ± SE) Seven Days Df” value [1] was 0.20 ± 0.17 and the “Neurotropic effect (mean ± SE) Two Days Df” value [1] was 0.42 ± 0.01. The “Neurotropic effect Seven Days NGF (%)” value [1] was 43.5%, the “Neurotropic effect Two Days NGF (%)” value [1] was 91.3% and the “neurotropic activity (in words)” value ([1]; after seven days of treatment) was “significant neurotropic activity”. For the same molecule, the “inducing fast neurite outgrowth (in words)” value [1] was “most active”.

C=C1C(CC=C(C)C)CCC[C@H]1CC(=O)O (some centres unmarked) [Compound 6] was tested, and the “Neurotropic effect (mean ± SE) Seven Days Df” value [1] was 0.20 ± 0.17, the “Neurotropic effect (mean ± SE) Two Days Df” value [1] was 0.14 ± 0.15 and the “Neurotropic effect Seven Days NGF (%)” value [1] was 43.5%. The “Neurotropic effect Two Days NGF (%)” value [1] was 30.4%, the “neurotropic activity (in words)” value ([1]; after seven days of treatment) was “significant neurotropic activity” and the “inducing fast neurite outgrowth (in words)” value [1] was “most active”.

In the case of C=C1C(CC=C(C)C)CCCC1CC(=O)OC (centres unmarked) [Compound 7, Methyl 2-(3-(3-methylbut-2-en-1-yl)-2-methylenecyclohexyl)acetate], the “Neurotropic effect (mean ± SE) Seven Days Df” value [1] is reported as 0.20 ± 0.17, the “Neurotropic effect (mean ± SE) Two Days Df” value [1] is reported as 0.12 ± 0.14 and the “Neurotropic effect Seven Days NGF (%)” value [1] is reported as 43.5%. For the same molecule, the “Neurotropic effect Two Days NGF (%)” value [1] was 26.1%, the “neurotropic activity (in words)” value ([1]; after seven days of treatment) was “significant neurotropic activity” and the “inducing fast neurite outgrowth (in words)” value [1] was “most active”.

With C=C1C(C/C=C/c2ccccc2)CCC[C@H]1CC(=O)O (some centres unmarked) [Compound 8] the “cytotoxicity (in words)” value [2] was “partial cytotoxic activity”.

In the case of C=CCC1CC(=C)C[C@@H](CC(=O)O)C1=C (some centres unmarked) [Compound 9], the “Neurotropic effect (mean ± SE) Seven Days Df” value [1] is reported as 0.01 ± 0.01, the “Neurotropic effect Seven Days NGF (%)” value [1] is reported as 2.2% and the “neurotropic activity (in words)” value ([1]; PC12 cell neurotropic assay) is reported as “no activity was detected”.

C=CCC1CC(c2ccccc2)C[C@@H](CC(=O)O)C1=C (some centres unmarked) [Compound 10] was tested, and the “neurotropic activity (in words)” value ([1]; PC12 cell neurotropic assay) was “no activity was detected”.

For C=CCC1CC(c2ccccc2)CC(CC(=O)OC)C1=C (centres unmarked) [Compound 11, Methyl 2-(3-allyl-2-methylene-5-phenylcyclohexyl)acetate], the “Neurotropic effect (mean ± SE) Seven Days Df” value [1] was 0.01 ± 0.01, the “Neurotropic effect Seven Days NGF (%)” value [1] was 2.2% and the “neurotropic activity (in words)” value ([1]; PC12 cell neurotropic assay) was “no activity was detected”.

In the case of C=CCC1CC(C(C)(C)C)C[C@@H](CC(=O)O)C1=C (some centres unmarked) [Compound 12], the “Neurotropic effect (mean ± SE) Seven Days Df” value [1] is reported as 0.17 ± 0.16, the “Neurotropic effect Seven Days NGF (%)” value [1] is reported as 37.0% and the “neurotropic activity (in words)” value ([1]; after seven days of treatment) is reported as “significant neurotropic activity”.

For C=CCC1CN(C(=O)OCC)CC(CC(=O)OC)C1=C (centres unmarked) [Compound 15, Ethyl-3-allyl-5-(2-methoxy-2-oxoethyl)-4-methylenepiperidine-1-carboxylate], the “cytotoxicity (in words)” value [2] was “partial cytotoxic activity”.

For C=C(C)CC1CCCC(CC(=O)OC)C1=O (centres unmarked) [Compound 18, Methyl 2-(3-(2-methylallyl)-2-oxocyclohexyl)acetate], the “cytotoxicity (in words)” value [2] was “partial cytotoxic activity”.

COC(=O)CC1CCCC(CC=C(C)C)C1=O (centres unmarked) [Compound 21, Methyl 2-(3-(3-methylbut-2-en-1-yl)-2-oxocyclohexyl)acetate] was tested, and the “Neurotropic effect (mean ± SE) Seven Days Df” value [1] was 0.01 ± 0.01 and the “Neurotropic effect Seven Days NGF (%)” value [1] was 2.2%.

Work on C[C@]12N[C@H](Cc3ccccc31)c1ccccc12 [MK 801, reference compound] yielded an IC50 [3] of 52.8 nM.

Molecule “Dihydro-AY-erythroidine [reference compound]” has an IC50 [4] of 707 nM.

In the case of Picrotoxin [reference compound], the IC50 [5] is reported as 5920 nM.

B1: NGF: Tissue culture grade mouse β-NGF from Alomone Labs; positive control (protein, UniProt P01139 122-241, looked up)
Beta-nerve growth factor: SSTHPVFHMGEFSVCDSVSVWVGDKTTATDIKGKEVTVLAEVNINNSVFRQYFFETKCRASNPVESGCRGIDSKHWNSYCTTTHTFVKALTTDEKQAAWRFIRIDTACVCVLSRKATRRG
modifications: Beta-nerve growth factor
notes: Tissue culture grade mouse β-NGF from Alomone Labs; positive control
With B1 the “increase in neurite outgrowth” value ([6]; NGF 50 ng/ml vs blank control medium) was 3-4 fold, the neurite outgrowth length [6, 8] was 700 micrometer and the “ratio between the area covered by neurites and that covered by the DRG ganglia” value [6, 8] was 9. For the same molecule, the “neurite outgrowth Df” value ([7]; NGF alone 50 ng/ml, 2 days) was 0.54, the “neurite outgrowth Df” value ([7]; NGF alone 50 ng/ml, 7 days) was 0.4 and the neurite outgrowth ([7]; low dose NGF 1 ng/ml) was 10%. The “neurite outgrowth Df” value ([7]; low dose NGF 1 ng/ml) was 0.05.
